Reference: article PMC5752595 (Molecular cancer therapeutics, 2017)
pIC50: −log10 of the molar value.

Key:
Test in all cases: in vitro kinase assay
FER = FER (Homo sapiens, UniProt P16591); format: biochemical
CAMKK2 = CAMKK2 (Homo sapiens, UniProt Q96RR4); format: biochemical
AMPK = format: biochemical, Homo sapiens; conditions: read-out: Ceritinib
RSK2 = RSK2 (Homo sapiens, UniProt P51812); format: biochemical
OSR1 = OSR1 (Homo sapiens, UniProt O95747); format: biochemical
RSK1 = RSK1 (Homo sapiens, UniProt Q15418); format: biochemical
RSK1, sequence (Q15418 whole entry): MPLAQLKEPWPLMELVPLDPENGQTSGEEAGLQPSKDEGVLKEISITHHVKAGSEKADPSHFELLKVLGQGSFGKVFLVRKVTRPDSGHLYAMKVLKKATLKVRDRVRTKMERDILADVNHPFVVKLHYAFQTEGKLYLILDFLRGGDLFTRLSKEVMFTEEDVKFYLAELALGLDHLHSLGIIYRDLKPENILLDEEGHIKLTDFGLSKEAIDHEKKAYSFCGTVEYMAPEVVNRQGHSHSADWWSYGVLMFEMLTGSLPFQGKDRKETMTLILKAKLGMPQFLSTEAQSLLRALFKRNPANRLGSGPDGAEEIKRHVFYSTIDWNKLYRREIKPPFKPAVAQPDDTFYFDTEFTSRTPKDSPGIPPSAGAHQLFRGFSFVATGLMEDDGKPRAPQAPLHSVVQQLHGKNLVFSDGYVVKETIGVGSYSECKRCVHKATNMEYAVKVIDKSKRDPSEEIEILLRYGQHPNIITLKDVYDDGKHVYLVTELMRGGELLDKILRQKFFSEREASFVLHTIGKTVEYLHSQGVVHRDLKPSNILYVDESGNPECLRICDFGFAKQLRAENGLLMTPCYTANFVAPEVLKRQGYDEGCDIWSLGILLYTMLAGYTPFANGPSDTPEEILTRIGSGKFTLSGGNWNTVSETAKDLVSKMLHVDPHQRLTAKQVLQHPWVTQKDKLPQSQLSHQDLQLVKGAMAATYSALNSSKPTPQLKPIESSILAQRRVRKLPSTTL

OSR1, sequence (O95747 2-527): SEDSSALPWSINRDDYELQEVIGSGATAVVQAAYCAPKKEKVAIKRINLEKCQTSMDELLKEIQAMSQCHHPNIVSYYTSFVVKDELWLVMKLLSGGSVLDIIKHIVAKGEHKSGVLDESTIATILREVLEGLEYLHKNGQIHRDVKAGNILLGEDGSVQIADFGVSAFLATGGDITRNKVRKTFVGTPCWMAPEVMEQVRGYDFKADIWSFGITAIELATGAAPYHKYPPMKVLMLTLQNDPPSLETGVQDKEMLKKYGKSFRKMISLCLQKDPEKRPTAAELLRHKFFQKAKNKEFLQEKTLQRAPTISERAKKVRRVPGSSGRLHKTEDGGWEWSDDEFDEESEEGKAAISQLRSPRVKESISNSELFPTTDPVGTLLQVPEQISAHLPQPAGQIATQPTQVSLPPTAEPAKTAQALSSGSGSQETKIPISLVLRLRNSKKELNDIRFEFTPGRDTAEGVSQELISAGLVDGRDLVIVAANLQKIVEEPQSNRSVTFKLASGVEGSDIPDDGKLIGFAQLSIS
FER, sequence (P16591 whole entry): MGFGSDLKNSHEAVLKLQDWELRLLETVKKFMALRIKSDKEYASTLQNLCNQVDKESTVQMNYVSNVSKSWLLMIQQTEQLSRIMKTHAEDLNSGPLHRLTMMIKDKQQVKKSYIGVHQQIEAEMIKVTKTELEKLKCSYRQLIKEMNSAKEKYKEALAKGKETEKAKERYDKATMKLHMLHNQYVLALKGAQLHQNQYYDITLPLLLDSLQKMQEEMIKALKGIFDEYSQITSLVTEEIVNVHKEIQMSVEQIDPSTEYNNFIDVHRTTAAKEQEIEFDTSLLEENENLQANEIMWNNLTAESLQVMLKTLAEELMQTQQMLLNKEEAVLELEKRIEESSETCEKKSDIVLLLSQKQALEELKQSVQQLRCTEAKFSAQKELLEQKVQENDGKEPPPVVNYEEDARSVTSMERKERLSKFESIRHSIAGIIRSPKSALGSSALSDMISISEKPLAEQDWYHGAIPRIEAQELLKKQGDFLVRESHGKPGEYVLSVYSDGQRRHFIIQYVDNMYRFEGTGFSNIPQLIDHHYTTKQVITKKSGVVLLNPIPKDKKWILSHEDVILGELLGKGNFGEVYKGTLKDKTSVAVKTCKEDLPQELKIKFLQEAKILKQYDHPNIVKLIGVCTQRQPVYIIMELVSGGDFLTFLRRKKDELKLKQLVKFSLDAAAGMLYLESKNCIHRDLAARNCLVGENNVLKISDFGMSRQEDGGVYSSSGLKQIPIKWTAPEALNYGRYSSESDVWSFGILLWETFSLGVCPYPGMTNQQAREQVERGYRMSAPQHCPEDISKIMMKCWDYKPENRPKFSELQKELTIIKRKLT
CAMKK2, sequence (Q96RR4 2-588): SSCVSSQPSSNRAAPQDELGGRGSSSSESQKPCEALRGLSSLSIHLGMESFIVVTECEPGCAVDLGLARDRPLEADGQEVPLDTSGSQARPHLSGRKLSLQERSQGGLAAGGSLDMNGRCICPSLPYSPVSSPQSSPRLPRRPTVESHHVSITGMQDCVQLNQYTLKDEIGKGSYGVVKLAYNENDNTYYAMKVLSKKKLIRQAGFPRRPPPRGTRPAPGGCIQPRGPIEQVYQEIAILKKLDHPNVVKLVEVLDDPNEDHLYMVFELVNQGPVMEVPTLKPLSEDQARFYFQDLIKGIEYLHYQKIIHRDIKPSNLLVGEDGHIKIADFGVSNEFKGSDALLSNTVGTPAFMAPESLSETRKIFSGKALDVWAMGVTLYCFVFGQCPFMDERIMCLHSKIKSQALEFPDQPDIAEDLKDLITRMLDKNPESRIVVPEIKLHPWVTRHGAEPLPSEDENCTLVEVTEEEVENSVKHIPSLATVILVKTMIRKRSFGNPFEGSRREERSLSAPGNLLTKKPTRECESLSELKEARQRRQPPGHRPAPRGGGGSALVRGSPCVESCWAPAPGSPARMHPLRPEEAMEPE
RSK2, sequence (P51812 whole entry): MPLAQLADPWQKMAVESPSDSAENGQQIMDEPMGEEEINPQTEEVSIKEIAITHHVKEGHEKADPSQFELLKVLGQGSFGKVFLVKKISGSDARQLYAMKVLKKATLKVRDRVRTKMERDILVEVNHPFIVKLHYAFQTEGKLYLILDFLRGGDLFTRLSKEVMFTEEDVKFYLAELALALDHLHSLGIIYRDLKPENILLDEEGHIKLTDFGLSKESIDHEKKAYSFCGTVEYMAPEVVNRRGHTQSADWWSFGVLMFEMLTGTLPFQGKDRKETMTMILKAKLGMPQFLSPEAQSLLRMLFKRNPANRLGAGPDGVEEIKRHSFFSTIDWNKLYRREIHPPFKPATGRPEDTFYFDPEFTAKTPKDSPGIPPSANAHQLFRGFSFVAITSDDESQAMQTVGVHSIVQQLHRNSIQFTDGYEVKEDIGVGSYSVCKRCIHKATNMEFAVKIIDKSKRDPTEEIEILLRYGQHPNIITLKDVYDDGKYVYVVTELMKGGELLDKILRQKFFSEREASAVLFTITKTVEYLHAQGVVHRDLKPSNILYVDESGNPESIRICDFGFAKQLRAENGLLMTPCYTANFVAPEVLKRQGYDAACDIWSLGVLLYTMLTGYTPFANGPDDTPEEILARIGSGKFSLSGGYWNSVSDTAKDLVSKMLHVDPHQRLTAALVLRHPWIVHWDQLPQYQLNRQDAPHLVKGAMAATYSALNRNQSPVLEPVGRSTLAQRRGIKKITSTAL

pIC50 (FER): 7.93
pIC50 (CAMKK2): 7.12
pIC50 (AMPK): 5.63
pIC50 (RSK2): 6.38
pIC50 (OSR1): 6.06
pIC50 (RSK1): 6.02
Compound: Cc1cc(Nc2ncc(Cl)c(Nc3ccccc3S(=O)(=O)C(C)C)n2)c(OC(C)C)cc1C1CCNCC1 [ceritinib]
